Test results taken from US20250091994A1, “RAS/RAF BINDING INHIBITOR COMPOUND” (NATIONAL UNIVERSITY CORPORATION KOBE UNIVERSITY, priority 2021, published 2025).
Like-named read-outs stand apart in the source and are kept apart here.

How the values were obtained:
[1] = biological target: GTPγS-bound human HRasG12V / human c-Raf-1 Ras binding domain (RBD) (Homo sapiens (Human), UniProt P01112, G12V); test: Ras-Raf binding inhibition ELISA
Experimental: The in vitro Ras-Raf binding inhibitory activity of the compound of the present invention was evaluated by an ELISA method (Enzyme-Linked ImmunoSorbent Assay) described below.
Ras and Raf used upon the evaluation were purified and activated by the following method.
Using a pGEX6P-1 vector (GE Healthcare), human HRasG12V (full length, 1-189 amino acid residues) and human c-Raf-1 Ras binding domain (RBD) (50-131 amino acid residues) were each allowed to express as a fusion body with glutathione S-transferase (GST) in E. coli.
GST-HRasG12V-expressing cells were subjected to ultrasonication in a buffer {50 mM Tris-HCl pH 7.4, 150 mM NaCl, 5 mM MgCl2, 1 mM ethylenediaminetetraacetic acid (EDTA), 1 mM dithiothreitol (DTT), 10% glycerol, and 1% Triton-X100}, and were then centrifuged at 100,000×g for 30 minutes, so as to collect the supernatant as a Ras protein fraction. HRasG12V in the supernatant was immobilized on a glutathione-agarose resin, and GST was then cleaved with PreScission Protease (GE Healthcare) for purification. The obtained HRasG12V was mixed with guanosine 5′-O-[gamma-thio]triphosphate trisodium salt (GTPTS) of 1000 times higher concentration at 30° C. for 1 hour, and thereafter, 20 mM MgCl2 (final concentration) was added to stop the reaction and collect the GTPgS-loaded HRasG12V as a product.
On the other hand, GST-c-Raf-1 RBD-expressing cells were subjected to ultrasonication in the same buffer as described above, and were then centrifuged at 100,000×g for 30 minutes, so as to collected the supernatant as a GST-c-Raf-1 RBD protein fraction.
The in vitro Ras-Raf binding inhibitory activity of the compound of the present invention was evaluated by an ELISA method described below.
GST-c-Raf-1 RBD diluted with a Ras-Raf binding buffer (50 mM Tris-HCl pH7.4, 150 mM NaCl, 5 mM MgCl2, 1 mM EDTA, and 1% Triton-X100) was added to each well of a glutathione-coated 96-well plate (Thermo Fisher Scientific.), and was incubated at 30° C. for 1 hour, to immobilize Raf on the well. The unbound free Raf was eliminated by washing the well with the Ras-Raf binding buffer three times. Subsequently, GTPTS-bound HRasG12V diluted with the Ras-Raf binding buffer and each compound solution (final DMSO concentration: 10%) were applied to each well, and the resulting mixture was then incubated at 30° C. for 1 hour, so that Ras and Raf were allowed to bind to each other. Thereafter, the plate was washed with the Ras-Raf binding buffer twice, and was then subjected to a blocking treatment at room temperature for 20 minutes, using TBS-Tween {10 mM Tris-HCl pH 7.4, 150 mM NaCl, and 0.05% (w/v) Tween-20}-5% (w/v) bovine serum albumin (BSA). After that, an anti-HRas antibody (C-20, Santa Cruz) or an anti-HRas antibody (259, Santa Cruz), which had been 1000 times diluted with TBS-Tween-5% BSA, was added to the reaction mixture, and incubated at room temperature for 1 hours. After the treatment with the primary antibody, the plate was washed with TBS-Tween-5% BSA three times, and a horseradish peroxidase-labeled secondary antibody against rabbit immunoglobulin G (GE Healthcare) of 1000 times diluted with TBS-Tween-5% BSA, was added to the plate, followed by incubation at room temperature for 1 hour. After the treatment with the secondary antibody, the plate was washed with TBS-Tween-5% BSA three times, and a substrate solution (TMB) was then added to the plate, followed by incubation at room temperature for 15 minutes for coloration. Finally, 2 M H2SO4 was added to stop color development (coloration reaction kit: Nacalai Tesque). The absorbance at 450 nm (OD450) was measured, so that the color intensity was quantified. Inhibition by the test compound was determined according to the following equation: […]
IC50 (*) in which the anti-HRas antibody (259, Santa Cruz) was used

[2] = test system: promyelocytic leukemia cells HL60 (N-RasQ61L); test: Cell growth inhibition, suspension cells HL60; format: cell-based; conditions: Homo sapiens, HL-60, 72 hours; for inhibition at 3.3 µM: read-out: HL-60 (NRasQ61L) % inhibition at 3.3 μM (**); for inhibition at 1.1 µM: read-out: HL-60 (NRasQ61L) % inhibition at 1.1 μM (*)
Experimental: (§1) The cell growth inhibitory activity of the compound of the present invention on human culture cells having active-type mutation in Ras was evaluated by the below-mentioned method using suspension cancer cells {acute lymphoblastic leukemia cells CCRF-CEM (K-RasG12D), promyelocytic leukemia cells HL60 (N-RasQ61L), acute lymphoblastic leukemia cells MOLT4 (N-RasG12C), and small cell lung cancer cells SHP77 (K-RasG12V)} and adherent cancer cells {large bowel cancer cells SW480 (K-RasG12V) and large bowel cancer cell SW620 (K-RasG12V)}.
(Case of suspension cells) The cells suspended in a medium containing 0.5% (v/v) fetal bovine serum (FBS) and each compound solution (final DMSO concentration: 1%) were seeded on a 96-well plate (2 to 4×10^4 cells/well), and the resulting mixture was then cultured at 37° C. in the presence of 5% CO2 for 72 hours.
(§2) Thereafter, the number of viable cells was measured using Cell Counting Reagent (Nacalai Tesque) in accordance with the manufacturer's instructions. Inhibition by the test compound was determined according to the following equation: […]

[3] = test system: large bowel cancer cell SW620 (K-RasG12V); test: Cell growth inhibition, adherent cells SW620; format: cell-based; conditions: Homo sapiens, SW-620, 72 hours; for inhibition at 3.2 µM: read-out: SW620 (KRasG12V) % inhibition at 3.2 μM (***); for inhibition at 1 µM: read-out: SW620 (KRasG12V) % inhibition at 1 μM
Experimental: as §1
(Case of adherent cells) The cells suspended in a medium containing 10% FBS (1 to 2×10^4 cells/well) were seeded on a 96-well plate, and were then cultured at 37° C. in the presence of […]. Thereafter, the medium was exchanged with a medium containing […], to which each compound solution (final DMSO concentration: […]) had been added, and the cells were then cultured at 37° C. in the presence of […] for 72 hours.
as §2

[4] = anti-HRas antibody C-20, read-out: ELISA IC50 (μM): 1st Ab_C-20
[5] = anti-HRas antibody 259 (*), read-out: ELISA IC50 (μM): 1st Ab_259 (*)

Sequence of GTPγS-bound human HRasG12V / human c-Raf-1 Ras binding domain (RBD) (P01112 whole entry G12V, the tested form may be a part): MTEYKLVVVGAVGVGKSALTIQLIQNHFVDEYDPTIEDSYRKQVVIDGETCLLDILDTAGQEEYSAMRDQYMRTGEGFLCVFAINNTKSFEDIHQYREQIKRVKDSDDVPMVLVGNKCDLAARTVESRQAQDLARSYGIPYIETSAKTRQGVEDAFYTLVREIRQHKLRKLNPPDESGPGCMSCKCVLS

Row | SMILES | inhibition at 1 µM [1] [%] | IC50 [1, 4] [µM] | inhibition at 3.2 µM [3] [%] | inhibition at 3.3 µM [2] [%] | inhibition at 1 µM [3] [%] | other results
1 | CC(=O)N1/C(=C\c2cc(-c3cccc(-c4ccccc4)c3)c3cc(C(=O)N4CCOCC4)ccc3n2)C(=O)c2ccccc21 [Example 88, (Z)-2-((4-([1,1′-biphenyl]-3-yl)-6-(morpholine-4-carbonyl)quinolin-2-yl)methylene)-1-acetylindolin-3-one] | – | 0.98 | – | 89 | 46 | –
2 | CC(=O)N1/C(=C\c2cc(-c3cccc4cccnc34)c3cc(C(=O)N4CCOCC4)ccc3n2)C(=O)c2ccccc21 [Example 91, (Z)-1-acetyl-2-((6-(morpholine-4-carbonyl)-[4,8′-biquinolin]-2-yl)-methylene)indolin-3-one] | – | 0.87 | – | 97 | 70 | –
3 | CC(=O)N1C(=Cc2cc(-c3cccnc3-c3ccccc3)c3cc(C(=O)N4CCOCC4)ccc3n2)C(=O)c2ccccc21 [Example 94, 1-acetyl-2-((6-(morpholine-4-carbonyl)-4-(2-phenylpyridin-3-yl)quinolin-2-yl)-methylene)indolin-3-one] | – | – | – | 96 | 82 | –
4 | CC(=O)N1/C(=C\c2nc3ccc(C(=O)N4CC(C)OC(C)C4)cc3s2)C(=O)c2ccccc21 (stereo not drawn) [Example 100, (Z)-1-acetyl-2-((6-(2,6-dimethyl-morpholine-4-carbonyl)benzo [d]thiazol-2-yl)-methylene)indolin-3-one] | – | – | – | – | – | IC50 [1, 5]: 0.77 µM; inhibition at 10 µM ([2]; 10 μM (***), read-out: HL-60 (NRasQ61L) % inhibition at 10 μM (***)): 87%
5 | CC(=O)N1/C(=C/c2cc(-c3ccnc4ccccc34)c3cc(C(=O)N4CCOCC4)ccc3n2)C(=O)c2ccccc21 [Example 117, (E)-1-acetyl-2-((6-(morpholine-4-carbonyl)-[4,4′-biquinolin]-2-yl)-methylene)indolin-3-one] | – | – | – | 94 | 66 | –
6 | CC(=O)N1/C(=C\c2ccc3cc(CNC4CCN(C5COC5)CC4)ccc3n2)C(=O)c2ccccc21 [Example 138, (Z)-1-acetyl-2-((6-(((1-(oxetan-3-yl)piperidin-4-yl)amino)meth-yl)quinolin-2-yl)-methylene)indolin-3-one] | – | – | – | 65 | – | IC50 [1, 5]: 0.88 µM
7 | CC(=O)N1/C(=C\c2cc(-c3cn[nH]c3)c3cc(C(=O)N4CCOCC4)ccc3n2)C(=O)c2ccccc21 [Example 170, (Z)-1-acetyl-2-((6-(morpholine-4-carbonyl)-4-(1H-pyrazol-4-yl)quinolin-2-yl)-methylene)indolin-3-one] | 66.8 | 0.5 | 41.6 | – | – | –
8 | CC(=O)N1/C(=C\c2cc(-c3ncn(C)n3)c3cc(C(=O)N4CCOCC4)ccc3n2)C(=O)c2ccccc21 [Example 188, (Z)-1-acetyl-2-((4-(1-methyl-1H-1,2,4-triazol-3-yl)-6-(morpholine-4-carbonyl)quinolin-2-yl)methylene)-indolin-3-one] | 53.7 | 0.9 | 79.3 | – | – | –
9 | CC(=O)N1/C(=C\c2cc(-c3cnn(C)c3)c3cc(CNC4CCOCC4)ccc3n2)C(=O)c2ccccc21 [Example 205, (Z)-1-acetyl-2-((4-(1-methyl-1H-pyrazol-4-yl)-6-(((tetrahydro-2H-pyran-4-yl)amino)-methyl)quinolin-2-yl)methylene)-indolin-3-one] | 66.3 | 0.7 | 37 | – | – | –

The remaining compounds from weak to strong by IC50 [1, 4], led by results:

Row | inhibition at 1 µM [1] [%] | IC50 [1, 4] [µM] | SMILES | inhibition at 3.2 µM [3] [%] | inhibition at 3.3 µM [2] [%] | inhibition at 1 µM [3] [%] | other results
10 | 66.1 | 0.5 | CC(=O)N1C(=Cc2cc(-c3ccc4c(c3)CCNC4=O)c3cc(C(=O)N4CCOCC4)ccc3n2)C(=O)c2ccccc21 (racemic) [Example 147, 6-(2-((1-acetyl-3-oxoindolin-2-ylidene)methyl)-6-(morpholine-4-carbonyl)quinolin-4-yl)-3,4-dihydro-isoquinolin-1(2H)-one] | 92.2 | – | – | inhibition at 3.2 µM ([2]; 3.2 μM (****), read-out: HL-60 (NRasQ61L) % inhibition at 3.2 μM (****)): 59.1%
11 | – | 0.5 | CC(=O)N1/C(=C\c2cc(-c3ccccc3-c3ccccc3)c3cc(C(=O)N4CCOCC4)ccc3n2)C(=O)c2ccccc21 [Example 89, (Z)-2-((4-([1,1′-biphenyl]-2-yl)-6-(morpholine-4-carbonyl)quinolin-2-yl)methylene)-1-acetylindolin-3-one] | – | – | 71 | inhibition at 1.1 µM [2]: 95%
12 | – | 0.49 | CC(=O)N1/C(=C\c2cc(-c3ccccc3-c3ccccc3)c3cc(C(=O)O)ccc3n2)C(=O)c2ccccc21 [Example 128, (Z)-4-([1,1′-biphenyl]-2-yl)-2-((1-acetyl-3-oxo-indolin-2-ylidene)-methyl)quinoline-6-carboxylic acid] | – | 96 | 70 | –
13 | – | 0.44 | CC(=O)N1/C(=C\c2cc(-c3ccccc3-c3ccccc3)c3cc(C(=O)N4CCN(C5COC5)CC4)ccc3n2)C(=O)c2ccccc21 [Example 95, (Z)-2-((4-([1,1′-biphenyl]-2-yl)-6-(4-(oxetan-3-yl)-piperazine-1-carbonyl)quinolin-2-yl)methylene)-1-acetylindolin-3-one] | – | – | 70 | inhibition at 1.1 µM [2]: 88%
14 | 72 | 0.4 | CC(=O)N1/C(=C\c2cc(-c3cnn(C)c3)c3cc(C(=O)N4CCOCC4)ccc3n2)C(=O)c2ccccc21 [Example 171, (Z)-1-acetyl-2-((4-(1-methyl-1H-pyrazol-4-yl)-6-(morpholine-4-carbonyl)quinolin-2-yl)methylene)-indolin-3-one] | 79.5 | – | – | –
